In publication PMC6624297 (Cell Death & Disease, 2019):

Tests used:
[1] = tested on: SGC7901 cells; assay: MTT assay SGC7901; format: cell-based; details: Homo sapiens, SGC-7901, 24h of treatment, mean ± SD
Description: (§1) Details are given in Supplementary Materials and Methods. Using probability unit and weighted regression method to calculate the IC50 value of compounds.
(§2) Total cells in the logarithmic growth phase were collected, digested using 0.25% pancreatic enzymes, and then diluted into single-cell suspensions using phosphate-buffered solution (PBS). These cells were seeded into 96-well plates at 4× 10^3-5× 10^3 cells per well (100 µL per well) and then A549, H460, OVCAR-3, SGC7901, MDA-MB-231, HCT116 and HepG2 were cultured at 37°Cin an incubator containing 5% CO2. After cell complete attachment, 100 µL of different concentrations of compounds (0.625 μM, 1.25 μM, 2.5μM, 5 μM, 10 μM) were added to the cells after the nutrient solution in each well was discarded, while no compound except 0.1% DMSO was added to cells in the control group; at the same time, each concentration was set up to 5 wells. In addition, 5 wells in each 96-well plate only received 100 µL of nutrient solution as a blank control. The plates were taken out after the cells were incubated with compounds for 24 h, and 20 µL of MTT solution (5 mg/mL) (Wuhan Boster Biotechnology Limited Company, Wuhan, China; item No. AR1156) was added into all the wells. After another time of incubation for 4 h at 37 °C, the nutrient solution in each well was discarded slowly, and 150 µL of DMSO was added to each well. The plates were shaken on a shaking table for 20 min. When the crystals were fully dissolved, the blank wells were used to zero the plate reader. The optical density (OD) of each well was detected at 490 nm. The IC50 value was determined as the concentration of the inhibitor that caused 50% inhibition. Using probability unit and weighted regression method to calculate the IC50 value of compounds.

[2] = target: EGFR kinase (Homo sapiens, UniProt P00533); assay: ADP-Glo kinase assay, EGFR; format: biochemical; details: averages from triplicate assays
Description: The ADP-Glo™ kinase assay (Promega, Madison, WI) was used to screen target compounds for their inhibition effects for BRaf, EGFR kinase. The kinase assay was carried out in a 96-well plate, in a volume of 25 μL HEPES (pH 7.3) solvent containing 1.6 μg/mL EGF, and 20 ng of EGFR kinase, or 50 ng BRaf kinase, and 10 μM ATP (Promega, Madison, WI). […] Reactions in each well were started immediately by adding ATP and kept going for half an hour under 30 °C in a constant temperature incubator (Bluepard, Shanghai, China). After the plate cooled for 5 min at room temperature, 25 μl of ADP-Glo reagent was added into each well to stop the reaction and consume the remaining […] within 40 min. At the end, 50 μl of kinase detection reagent was added into the well and incubated for 1 h to produce a luminescence signal.

[3] = tested on: HTB-125 cell line; assay: Selectivity index against HTB-125; format: cell-based; details: SI = CC50/IC50
[4] = tested on: P53, caspase-3, bcl-2/bax, cleaved caspase-3; assay: Western blot apoptotic proteins, H460; format: cell-based, human; details: H460, 0.5, 1.0, 1.5 μM, 24 h
Description: A549 cells, H460 cells and HUVECs were treated with different concentrations of compound L14e for 24 h. Primary antibodies (100 μL/cm^2): P53(10442-1-AP, Proteintech Group),caspase-3 (19677-1-AP, Proteintech Group), bax (50599-2-lg, Proteintech Group), bcl-2 (12789-1-AP, Proteintech Group), cleaved caspase-3 (25546-1-AP, Proteintech Group), β-actin (60008-1-lg, Proteintech Group), EGFR (ab21074, Abcam), AKT (#2920, Cell Signaling Technology), ERK1/2 (#4370, Cell Signaling Technology), VEGFR-2 (#9698, Cell Signaling Technology), p-EGFR (ab40815, Abcam), p-AKT (#4060, Cell Signaling Technology), p-ERK1/2 (#4695, Cell Signaling Technology), p-VEGFR-2 (#3770, Cell Signaling Technology), and GAPDH (ab181603, Abcam). The cellular levels of proteins were determined by standard Western blotting. Details were given in Supplementary Materials and Methods.
A549 cells, H460 cells and HUVECs were treated with different concentrations of compound L14e for 24 h, and collected to establish their respective treatment groups. […]
Extracted proteins were separated from each other using polyacrylamide electrophoresis on a 10 % gel (Beyotime Biotechnology Company, Shanghai, China) and transferred to a polyvinylidene fluoride (PVDF) membrane. […] Gray values of protein bands were quantitatively analyzed, with the gray value of β-actin(GAPDH) band as the reference.

[5] = tested on: HepG2 cells; assay: MTT assay HepG2; format: cell-based; details: Homo sapiens, 24h of treatment, mean ± SD
Description: as §1, §2

[6] = tested on: MDA-MB-231 cells; assay: MTT assay MDA-MB-231; format: cell-based; details: Homo sapiens, 24h of treatment, mean ± SD
Description: as §1, §2

[7] = tested on: OVCAR-3 cells; assay: MTT assay OVCAR-3; format: cell-based; details: Homo sapiens, 24h of treatment, mean ± SD
Description: as §1, §2

Chain of EGFR kinase (P00533 25-1210): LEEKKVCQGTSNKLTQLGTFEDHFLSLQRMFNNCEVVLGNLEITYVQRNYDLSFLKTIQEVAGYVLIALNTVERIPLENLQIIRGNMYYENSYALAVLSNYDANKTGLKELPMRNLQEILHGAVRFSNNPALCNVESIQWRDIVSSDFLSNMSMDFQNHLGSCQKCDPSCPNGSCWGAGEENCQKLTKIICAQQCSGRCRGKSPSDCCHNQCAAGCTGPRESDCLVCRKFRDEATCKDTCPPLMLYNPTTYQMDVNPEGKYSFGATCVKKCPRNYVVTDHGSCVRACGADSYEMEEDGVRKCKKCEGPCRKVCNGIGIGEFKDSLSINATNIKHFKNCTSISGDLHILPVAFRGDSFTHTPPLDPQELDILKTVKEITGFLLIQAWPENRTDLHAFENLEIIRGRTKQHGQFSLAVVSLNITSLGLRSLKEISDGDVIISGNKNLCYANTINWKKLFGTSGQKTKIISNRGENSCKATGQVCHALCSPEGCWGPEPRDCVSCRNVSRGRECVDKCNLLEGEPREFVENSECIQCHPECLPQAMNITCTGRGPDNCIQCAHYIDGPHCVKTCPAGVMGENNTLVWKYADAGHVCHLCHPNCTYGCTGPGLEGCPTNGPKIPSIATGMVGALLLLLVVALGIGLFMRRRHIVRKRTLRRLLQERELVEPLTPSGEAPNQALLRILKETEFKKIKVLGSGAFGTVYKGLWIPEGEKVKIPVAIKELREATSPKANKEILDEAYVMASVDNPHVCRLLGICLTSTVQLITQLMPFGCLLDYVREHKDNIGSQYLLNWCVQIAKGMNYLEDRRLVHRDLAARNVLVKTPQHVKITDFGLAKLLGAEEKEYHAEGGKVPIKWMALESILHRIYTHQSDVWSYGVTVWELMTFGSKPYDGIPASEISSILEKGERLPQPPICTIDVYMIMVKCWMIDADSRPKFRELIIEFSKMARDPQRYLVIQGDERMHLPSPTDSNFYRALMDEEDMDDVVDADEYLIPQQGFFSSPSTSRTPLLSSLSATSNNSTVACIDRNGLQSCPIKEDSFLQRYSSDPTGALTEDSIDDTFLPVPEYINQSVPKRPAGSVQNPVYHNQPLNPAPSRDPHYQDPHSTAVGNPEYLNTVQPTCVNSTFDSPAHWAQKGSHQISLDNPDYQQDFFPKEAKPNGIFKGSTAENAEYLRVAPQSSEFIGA

## O=C(Nc1cccc(Cl)c1)Nc1ccccc1NS(=O)(=O)c1c[nH]c(=O)[nH]c1=O [Compound L14e, N'-(3-chlorophenyl)-2-(2,4-dihydroxypyrimidine-5-sulfonamido)phenyl urea]
[1]
  IC50: 1950 ± 150 nM
[2]
  IC50: 1920 nM
[3]
  SI (Selectivity index) HTB-125: 10.39
[4]
  expression of P53, bax, bcl-2, cleaved caspase-3: over expression of P53, up-regulation of bax and down-regulation of bcl-2
[5]
  IC50: 1360 ± 130 nM
[6]
  IC50: 2600 ± 80 nM
[7]
  IC50: 1680 ± 310 nM
